In ChEMBL document CHEMBL1201862, “PubChem BioAssay data set” (2004):
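Cells were grown in 96-well plates and exposed to each compound for 48 hours at five concentrations; endpoints were interpolated linearly between bracketing concentrations, or set to the highest concentration if not reached. GI50 = concentration required for 50% inhibition of growth.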 Calls of active or inactive are those of the source. No stated cut-off is given here; in the data, active = GI50 up to about 1.1 µM and inactive = higher.

Tests used:
Assay in all cases: NCI tumour cell line growth inhibition, 48 h
MOLT-4 = system: MOLT-4
MDA-N = system: MDA-N
SK-OV-3 = system: SK-OV-3
CCRF-CEM = system: CCRF-CEM
SW-620 = system: SW-620
COLO 205 = system: COLO 205
SK-MEL-2 = system: SK-MEL-2
CAKI-1 = system: CAKI-1
UACC-257 = system: UACC-257
OVCAR-4 = system: OVCAR-4
SNB-19 = system: SNB-19
RPMI-8226 = system: RPMI-8226
SK-MEL-28 = system: SK-MEL-28
Hs-578T = system: Hs-578T
OVCAR-8 = system: OVCAR-8
NCI/ADR-RES = system: NCI/ADR-RES
LOX IMVI = system: LOX IMVI
MDA-MB-231 = system: MDA-MB-231
HCC 2998 = system: HCC 2998
RXF 393 = system: RXF 393

Compound | GI50 (MOLT-4) | GI50 (MDA-N) | GI50 (SK-OV-3) | GI50 (CCRF-CEM) | GI50 (SW-620) | GI50 (COLO 205) | GI50 (SK-MEL-2) | GI50 (CAKI-1) | GI50 (UACC-257) | GI50 (OVCAR-4) | GI50 (SNB-19) | GI50 (RPMI-8226) | GI50 (SK-MEL-28) | GI50 (Hs-578T) | GI50 (OVCAR-8) | GI50 (NCI/ADR-RES) | GI50 (LOX IMVI) | GI50 (MDA-MB-231) | GI50 (HCC 2998) | GI50 (RXF 393)
c1ccc2c(c1)cc1n2CCc2c-1[nH]c1ccccc21 | > 10 µM (inactive) | > 10 µM (inactive) | > 10 µM (inactive) | > 10 µM (inactive) | > 10 µM (inactive) | > 10 µM (inactive) | > 10 µM (inactive) | > 10 µM (inactive) | > 10 µM (inactive) | > 10 µM (inactive) | > 10 µM (inactive) | > 10 µM (inactive) | > 10 µM (inactive) | > 10 µM (inactive) | > 10 µM (inactive) | > 10 µM (inactive) | > 10 µM (inactive) | > 10 µM (inactive) | > 10 µM (inactive) | > 10 µM (inactive)
COc1ccc(CC[N+]2(C)COc3cc4oc(=O)cc(C)c4cc3C2)cc1OC (stereo not given) | 1.61 µM (inactive) | > 100 µM (inactive) | > 100 µM (inactive) | > 100 µM (inactive) | > 100 µM (inactive) | > 100 µM (inactive) | > 100 µM (inactive) | > 100 µM (inactive) | > 100 µM (inactive) | > 100 µM (inactive) | > 100 µM (inactive) | > 100 µM (inactive) | > 100 µM (inactive) | > 100 µM (inactive) | > 100 µM (inactive) | > 100 µM (inactive) | > 100 µM (inactive) | > 100 µM (inactive) | > 100 µM (inactive) | > 100 µM (inactive)
CC(C)C1/C(=N/O)CC(c2ccccc2)N(N=O)C1c1ccccc1 (stereo not given) | 32.3 µM (inactive) | 39.2 µM (inactive) | 24.8 µM (inactive) | 26.9 µM (inactive) | 40.6 µM (inactive) | 16.9 µM (inactive) | 24.5 µM (inactive) | 19.2 µM (inactive) | 40.7 µM (inactive) | 22.8 µM (inactive) | > 100 µM (inactive) | 45.4 µM (inactive) | 50.1 µM (inactive) | 17.5 µM (inactive) | 57 µM (inactive) | 35.1 µM (inactive) | 28.8 µM (inactive) | 81.3 µM (inactive) | 37.2 µM (inactive) | 20.9 µM (inactive)
Nc1ccc2c(SCC(=O)Nc3ccccc3-c3ccccc3NC(=O)CSc3c4ccccc4nc4cc(N)ccc34)c3ccccc3nc2c1 | 3.35 µM (inactive) | 44.5 µM (inactive) | 43.2 µM (inactive) | 2.79 µM (inactive) | 29.6 µM (inactive) | 14.2 µM (inactive) | 25.6 µM (inactive) | 45.5 µM (inactive) | 24.4 µM (inactive) | 29 µM (inactive) | 18.9 µM (inactive) | 8.47 µM (inactive) | 21.8 µM (inactive) | > 59.3 µM (inactive) | 26.3 µM (inactive) | 32.6 µM (inactive) | 22.9 µM (inactive) | > 50.4 µM (inactive) | 36.1 µM (inactive) | 34.9 µM (inactive)
O=C(N/N=C(COc1ccccc1)\N=C\c1ccncc1)c1ccncc1 | 82 µM (inactive) | > 100 µM (inactive) | > 100 µM (inactive) | > 100 µM (inactive) | > 100 µM (inactive) | > 100 µM (inactive) | > 100 µM (inactive) | > 100 µM (inactive) | > 100 µM (inactive) | > 100 µM (inactive) | > 100 µM (inactive) | 97.5 µM (inactive) | > 100 µM (inactive) | > 100 µM (inactive) | > 100 µM (inactive) | > 100 µM (inactive) | > 100 µM (inactive) | > 100 µM (inactive) | > 100 µM (inactive) | > 100 µM (inactive)
COC(=O)C1Cc2c([nH]c3ccccc23)-c2[nH]c3ccccc3c2CC(NC(C)=O)C(=O)NCC(=O)N1 (stereo not given) | > 100 µM (inactive) | > 100 µM (inactive) | > 100 µM (inactive) | > 100 µM (inactive) | > 100 µM (inactive) | > 100 µM (inactive) | > 100 µM (inactive) | > 100 µM (inactive) | > 100 µM (inactive) | > 100 µM (inactive) | > 100 µM (inactive) | > 100 µM (inactive) | > 100 µM (inactive) | > 100 µM (inactive) | > 100 µM (inactive) | > 100 µM (inactive) | > 100 µM (inactive) | > 100 µM (inactive) | > 100 µM (inactive) | > 100 µM (inactive)
O=C1c2cccc3cccc(c23)C(=O)N1CCCNCCCCNCCCN1C(=O)c2cccc3cccc(c23)C1=O | < 0.01 µM (active) | 0.256 µM (active) | 0.982 µM (active) | < 0.01 µM (active) | 0.0612 µM (active) | 0.192 µM (active) | 0.521 µM (active) | 0.857 µM (active) | 0.61 µM (active) | 0.2 µM (active) | 0.124 µM (active) | < 0.0205 µM (active) | 0.238 µM (active) | 0.0401 µM (active) | 0.177 µM (active) | 14.5 µM (inactive) | 0.0229 µM (active) | 0.137 µM (active) | 0.0755 µM (active) | 0.0933 µM (active)
CCC1=NC(N/N=C/c2ccco2)=N/C1=C\c1ccccc1O | 25.2 µM (inactive) | 50.4 µM (inactive) | 47 µM (inactive) | 12.7 µM (inactive) | 63.4 µM (inactive) | 44.3 µM (inactive) | 25.9 µM (inactive) | > 100 µM (inactive) | 35.2 µM (inactive) | 2.86 µM (inactive) | 47.9 µM (inactive) | 31.9 µM (inactive) | 38.3 µM (inactive) | 30.6 µM (inactive) | 25.4 µM (inactive) | 24.5 µM (inactive) | 35 µM (inactive) | > 100 µM (inactive) | 20.8 µM (inactive) | 82.4 µM (inactive)
